Test results as given in PubChem BioAssay (NCI).
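96-well plates; 48 h exposure; 5 concentrations. Endpoints by linear interpolation between flanking doses. Not reached: highest tested concentration assigned. At the TGI there is no net growth.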

Experiments:
Assay in all cases: NCI tumour cell line growth inhibition, 48 h
[1] = system: A498 renal
[2] = system: SNB-78 CNS
[3] = system: HOP-18 NSCLC
[4] = system: SNB-19 CNS
[5] = system: HCT-116 colon
[6] = system: SW-620 colon
[7] = system: SF-295 CNS
[8] = system: K-562 leukemia
[9] = system: UACC-257 melanoma
[10] = system: CAKI-1 renal
[11] = system: RPMI-8226 leukemia
[12] = system: SN12K1 renal
[13] = system: P388/ADR leukemia
[14] = system: KM20L2 colon
[15] = system: LOX IMVI melanoma
[16] = system: SN12C renal
[17] = system: NCI-H522 lung
[18] = system: SK-OV-3 ovarian
[19] = system: NCI-H460 lung
[20] = system: SF-539 CNS
[21] = system: DLD-1 colon
[22] = system: SF-268 CNS
[23] = system: M19-MEL melanoma
[24] = system: UO-31 renal
[25] = system: SK-MEL-28 melanoma
[26] = system: HL-60(TB) leukemia
[27] = system: MOLT-4 leukemia
[28] = system: UACC-62 melanoma
[29] = system: SNB-75 CNS
[30] = system: HOP-62 NSCLC
[31] = system: OVCAR-5 ovarian
[32] = system: A549 NSCLC
[33] = system: COLO 205 colon
[34] = system: MALME-3M melanoma
[35] = system: NCI-H23 lung
[36] = system: XF 498 CNS
[37] = system: OVCAR-3 ovarian
[38] = system: OVCAR-8 ovarian
[39] = system: DMS 114 small cell lung
[40] = system: RXF 393 renal
[41] = system: OVCAR-4 ovarian
[42] = system: EKVX NSCLC
[43] = system: HCT-15 colon
[44] = system: SK-MEL-2 melanoma
[45] = system: U251 CNS
[46] = system: P388 leukemia
[47] = system: CCRF-CEM leukemia
[48] = system: NCI/ADR-RES ovarian
[49] = system: NCI-H226 lung
[50] = system: HT29 colon
[51] = system: KM12 colon
[52] = system: MCF7 breast
[53] = system: SK-MEL-5 melanoma
[54] = system: HCC-2998 colon
[55] = system: IGROV1 ovarian

Question: Which results are given for `COc1cc(C2c3cc4c(cc3[C@@H](Nc3ccc(Oc5ccccc5)cc3)C3COC(=O)[C@H]23)OCO4)cc(OC)c1O` (stereo not given in full)?
Answer: TGI [1]: 9.6 µM; TGI [2]: > 100 µM; TGI [3]: > 100 µM; TGI [4]: > 100 µM; TGI [5]: > 100 µM; TGI [6]: > 100 µM; TGI [7]: > 100 µM; TGI [8]: > 32.4 µM; TGI [9]: 20.1 µM; TGI [10]: 6.76 µM; TGI [11]: 5.86 µM; TGI [12]: > 100 µM; TGI [13]: 3.49 µM; TGI [14]: > 24.3 µM; TGI [15]: > 100 µM; TGI [16]: > 25.5 µM; TGI [17]: > 78.9 µM; TGI [18]: > 52 µM; TGI [19]: 12.2 µM; TGI [20]: > 28.2 µM; TGI [21]: > 100 µM; TGI [22]: > 100 µM; TGI [23]: > 100 µM; TGI [24]: > 100 µM; TGI [25]: > 100 µM; TGI [26]: 2.23 µM; TGI [27]: 2 µM; TGI [28]: 22.9 µM; TGI [29]: 96.9 µM; TGI [30]: 4.15 µM; TGI [31]: > 100 µM; TGI [32]: > 39.5 µM; TGI [33]: 13 µM; TGI [34]: > 100 µM; TGI [35]: 6.68 µM; TGI [36]: > 59.8 µM; TGI [37]: > 100 µM; TGI [38]: > 100 µM; TGI [39]: > 22.7 µM; TGI [40]: > 100 µM; TGI [41]: > 100 µM; TGI [42]: > 100 µM; TGI [43]: 19.7 µM; TGI [44]: > 100 µM; TGI [45]: > 27.9 µM; TGI [46]: 1.88 µM; TGI [47]: 4.38 µM; TGI [48]: > 100 µM; TGI [49]: 7.9 µM; TGI [50]: > 100 µM; TGI [51]: > 100 µM; TGI [52]: > 37.1 µM; TGI [53]: 5.99 µM; TGI [54]: 13.8 µM; TGI [55]: > 100 µM
